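Growth conditions: 96-well plates. Treatment: test compound, 48 hours, 5 concentrations. Analysis: linear interpolation between bracketing concentrations; unreached endpoints set to highest concentration. TGI marks complete inhibition of growth.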
What was measured:
Assay in all cases: NCI tumour cell line growth inhibition, 48 h
UACC-62 melanoma = system: UACC-62 melanoma
RXF-631 renal = system: RXF-631 renal
NCI-H226 lung = system: NCI-H226 lung
SF-268 CNS = system: SF-268 CNS
COLO 205 colon = system: COLO 205 colon
SNB-75 CNS = system: SNB-75 CNS
SK-MEL-28 melanoma = system: SK-MEL-28 melanoma
HCT-116 colon = system: HCT-116 colon
MALME-3M melanoma = system: MALME-3M melanoma
UACC-257 melanoma = system: UACC-257 melanoma
CCRF-CEM leukemia = system: CCRF-CEM leukemia
SR leukemia = system: SR leukemia
KM12 colon = system: KM12 colon
DMS 273 small cell lung = system: DMS 273 small cell lung
SF-539 CNS = system: SF-539 CNS
DMS 114 small cell lung = system: DMS 114 small cell lung
HCT-15 colon = system: HCT-15 colon
SN12C renal = system: SN12C renal
M14 melanoma = system: M14 melanoma
OVCAR-8 ovarian = system: OVCAR-8 ovarian
DLD-1 colon = system: DLD-1 colon
MOLT-4 leukemia = system: MOLT-4 leukemia
RPMI-8226 leukemia = system: RPMI-8226 leukemia
NCI-H522 lung = system: NCI-H522 lung
M19-MEL melanoma = system: M19-MEL melanoma
CAKI-1 renal = system: CAKI-1 renal
OVCAR-4 ovarian = system: OVCAR-4 ovarian
U251 CNS = system: U251 CNS
RXF 393 renal = system: RXF 393 renal
SK-MEL-2 melanoma = system: SK-MEL-2 melanoma
SK-OV-3 ovarian = system: SK-OV-3 ovarian
HCC-2998 colon = system: HCC-2998 colon
HOP-18 NSCLC = system: HOP-18 NSCLC
HOP-62 NSCLC = system: HOP-62 NSCLC
KM20L2 colon = system: KM20L2 colon
HL-60(TB) leukemia = system: HL-60(TB) leukemia
UO-31 renal = system: UO-31 renal
786-0 renal = system: 786-0 renal
SW-620 colon = system: SW-620 colon
SNB-19 CNS = system: SNB-19 CNS
K-562 leukemia = system: K-562 leukemia
ACHN renal = system: ACHN renal
A549 NSCLC = system: A549 NSCLC
LXFL 529 NSCLC = system: LXFL 529 NSCLC
SNB-78 CNS = system: SNB-78 CNS
TK-10 renal = system: TK-10 renal
HT29 colon = system: HT29 colon
NCI-H23 lung = system: NCI-H23 lung
NCI-H460 lung = system: NCI-H460 lung
HOP-92 NSCLC = system: HOP-92 NSCLC
SK-MEL-5 melanoma = system: SK-MEL-5 melanoma
OVCAR-3 ovarian = system: OVCAR-3 ovarian
IGROV1 ovarian = system: IGROV1 ovarian
OVCAR-5 ovarian = system: OVCAR-5 ovarian
SF-295 CNS = system: SF-295 CNS
EKVX NSCLC = system: EKVX NSCLC
XF 498 CNS = system: XF 498 CNS
A498 renal = system: A498 renal
LOX IMVI melanoma = system: LOX IMVI melanoma

Structure (SMILES): CC12OC3(O)C4C5CC(C6C5C3C61)C42 (centres undefined)
- TGI (UACC-62 melanoma): > 100 µM
- TGI (RXF-631 renal): > 100 µM
- TGI (NCI-H226 lung): > 100 µM
- TGI (SF-268 CNS): > 100 µM
- TGI (COLO 205 colon): > 100 µM
- TGI (SNB-75 CNS): > 100 µM
- TGI (SK-MEL-28 melanoma): > 100 µM
- TGI (HCT-116 colon): > 100 µM
- TGI (MALME-3M melanoma): > 100 µM
- TGI (UACC-257 melanoma): > 100 µM
- TGI (CCRF-CEM leukemia): > 100 µM
- TGI (SR leukemia): > 100 µM
- TGI (KM12 colon): > 100 µM
- TGI (DMS 273 small cell lung): > 100 µM
- TGI (SF-539 CNS): > 100 µM
- TGI (DMS 114 small cell lung): > 100 µM
- TGI (HCT-15 colon): > 100 µM
- TGI (SN12C renal): > 100 µM
- TGI (M14 melanoma): > 100 µM
- TGI (OVCAR-8 ovarian): > 100 µM
- TGI (DLD-1 colon): > 100 µM
- TGI (MOLT-4 leukemia): > 100 µM
- TGI (RPMI-8226 leukemia): > 100 µM
- TGI (NCI-H522 lung): > 100 µM
- TGI (M19-MEL melanoma): > 100 µM
- TGI (CAKI-1 renal): > 100 µM
- TGI (OVCAR-4 ovarian): > 100 µM
- TGI (U251 CNS): > 100 µM
- TGI (RXF 393 renal): > 100 µM
- TGI (SK-MEL-2 melanoma): > 100 µM
- TGI (SK-OV-3 ovarian): > 100 µM
- TGI (HCC-2998 colon): > 100 µM
- TGI (HOP-18 NSCLC): > 100 µM
- TGI (HOP-62 NSCLC): > 100 µM
- TGI (KM20L2 colon): > 100 µM
- TGI (HL-60(TB) leukemia): > 100 µM
- TGI (UO-31 renal): > 100 µM
- TGI (786-0 renal): > 100 µM
- TGI (SW-620 colon): > 100 µM
- TGI (SNB-19 CNS): > 100 µM
- TGI (K-562 leukemia): > 100 µM
- TGI (ACHN renal): > 100 µM
- TGI (A549 NSCLC): > 100 µM
- TGI (LXFL 529 NSCLC): 53.1 µM
- TGI (SNB-78 CNS): > 100 µM
- TGI (TK-10 renal): > 100 µM

Structure (SMILES): COc1cc(C(=O)C(CO)Oc2ccccc2OC)ccc1O (centres undefined)
- TGI (UACC-62 melanoma): > 100 µM
- TGI (RXF-631 renal): > 100 µM
- TGI (NCI-H226 lung): > 100 µM
- TGI (SF-268 CNS): > 100 µM
- TGI (HT29 colon): > 100 µM
- TGI (COLO 205 colon): > 100 µM
- TGI (SNB-75 CNS): > 100 µM
- TGI (SK-MEL-28 melanoma): > 100 µM
- TGI (HCT-116 colon): > 100 µM
- TGI (MALME-3M melanoma): > 100 µM
- TGI (UACC-257 melanoma): > 100 µM
- TGI (NCI-H23 lung): > 100 µM
- TGI (NCI-H460 lung): > 100 µM
- TGI (CCRF-CEM leukemia): > 100 µM
- TGI (SR leukemia): > 100 µM
- TGI (KM12 colon): > 100 µM
- TGI (DMS 273 small cell lung): > 100 µM
- TGI (SF-539 CNS): > 100 µM
- TGI (DMS 114 small cell lung): > 100 µM
- TGI (HCT-15 colon): > 100 µM
- TGI (SN12C renal): > 100 µM
- TGI (M14 melanoma): > 100 µM
- TGI (OVCAR-8 ovarian): > 100 µM
- TGI (DLD-1 colon): > 100 µM
- TGI (HOP-92 NSCLC): > 100 µM
- TGI (MOLT-4 leukemia): > 100 µM
- TGI (NCI-H522 lung): > 100 µM
- TGI (SK-MEL-5 melanoma): > 100 µM
- TGI (M19-MEL melanoma): > 100 µM
- TGI (CAKI-1 renal): > 100 µM
- TGI (OVCAR-4 ovarian): > 100 µM
- TGI (U251 CNS): > 100 µM
- TGI (SK-OV-3 ovarian): > 100 µM
- TGI (HCC-2998 colon): > 100 µM
- TGI (HOP-18 NSCLC): > 100 µM
- TGI (OVCAR-3 ovarian): > 100 µM
- TGI (HOP-62 NSCLC): > 100 µM
- TGI (KM20L2 colon): > 100 µM
- TGI (HL-60(TB) leukemia): > 100 µM
- TGI (UO-31 renal): > 100 µM
- TGI (786-0 renal): > 100 µM
- TGI (SW-620 colon): > 100 µM
- TGI (SNB-19 CNS): > 100 µM
- TGI (IGROV1 ovarian): > 100 µM
- TGI (K-562 leukemia): > 100 µM
- TGI (ACHN renal): > 100 µM
- TGI (A549 NSCLC): > 100 µM
- TGI (LXFL 529 NSCLC): > 100 µM
- TGI (OVCAR-5 ovarian): > 100 µM
- TGI (SF-295 CNS): > 100 µM
- TGI (EKVX NSCLC): > 100 µM
- TGI (SNB-78 CNS): > 100 µM
- TGI (TK-10 renal): > 100 µM

Structure (SMILES): COC(=O)C(Cc1c[nH]c2ccccc12)NC(=O)C(Cc1c[nH]c2ccccc12)NC(=O)OCc1ccccc1 (centres undefined)
- TGI (UACC-62 melanoma): 33.4 µM
- TGI (RXF-631 renal): 51.1 µM
- TGI (NCI-H226 lung): 40.3 µM
- TGI (SF-268 CNS): 34.6 µM
- TGI (HT29 colon): 34.7 µM
- TGI (COLO 205 colon): 30.6 µM
- TGI (SNB-75 CNS): 39.9 µM
- TGI (SK-MEL-28 melanoma): 31.8 µM
- TGI (HCT-116 colon): 32.4 µM
- TGI (MALME-3M melanoma): > 100 µM
- TGI (UACC-257 melanoma): > 100 µM
- TGI (NCI-H23 lung): 32.2 µM
- TGI (NCI-H460 lung): 32 µM
- TGI (CCRF-CEM leukemia): 61.3 µM
- TGI (KM12 colon): 33.5 µM
- TGI (DMS 273 small cell lung): 29.8 µM
- TGI (SF-539 CNS): 30.4 µM
- TGI (DMS 114 small cell lung): 33.5 µM
- TGI (HCT-15 colon): 31.3 µM
- TGI (SN12C renal): 30.9 µM
- TGI (M14 melanoma): 38 µM
- TGI (OVCAR-8 ovarian): 31.7 µM
- TGI (DLD-1 colon): 32.7 µM
- TGI (XF 498 CNS): 30.7 µM
- TGI (HOP-92 NSCLC): 48.6 µM
- TGI (RPMI-8226 leukemia): 34.6 µM
- TGI (NCI-H522 lung): 32.2 µM
- TGI (SK-MEL-5 melanoma): 82.2 µM
- TGI (M19-MEL melanoma): 32.4 µM
- TGI (CAKI-1 renal): 40 µM
- TGI (OVCAR-4 ovarian): 30.1 µM
- TGI (U251 CNS): 30.6 µM
- TGI (RXF 393 renal): 35.1 µM
- TGI (SK-OV-3 ovarian): 34.3 µM
- TGI (HCC-2998 colon): 31.6 µM
- TGI (A498 renal): > 100 µM
- TGI (OVCAR-3 ovarian): 29 µM
- TGI (HOP-62 NSCLC): 37.6 µM
- TGI (KM20L2 colon): 32.2 µM
- TGI (HL-60(TB) leukemia): 48.7 µM
- TGI (UO-31 renal): 44 µM
- TGI (786-0 renal): 29.7 µM
- TGI (LOX IMVI melanoma): 32.2 µM
- TGI (SW-620 colon): 31.3 µM
- TGI (SNB-19 CNS): 31.6 µM
- TGI (IGROV1 ovarian): 36.6 µM
- TGI (K-562 leukemia): 56.6 µM
- TGI (ACHN renal): 39.2 µM
- TGI (A549 NSCLC): 33 µM
- TGI (LXFL 529 NSCLC): 31.2 µM
- TGI (OVCAR-5 ovarian): 31.5 µM
- TGI (SF-295 CNS): 31.9 µM
- TGI (EKVX NSCLC): 33.5 µM
- TGI (SNB-78 CNS): 60.2 µM
- TGI (TK-10 renal): 41.4 µM

From PubChem BioAssay (NCI)
